In patent publication US12195427B2, “MASP-2 inhibitors and methods of use” (priority 2018, dated 2025):
Counter-ions that a name gives are not always drawn.

Molecular target: MASP-2 CCP2-SP (Homo sapiens (Human), UniProt O00187)
Test: MASP-2 co-crystallization, X-ray crystallography and structure analysis (H-bonds, van der Waals contacts);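 on Ligand-pharmacophore element distance, pharmacophore element C2: distance from averaged pharmacophore element to bound ligand; missing value means element absent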;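 on Ligand-pharmacophore element distance, pharmacophore element C3: distance from averaged pharmacophore element to bound ligand; missing value means element absent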;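 on Ligand-pharmacophore element distance, pharmacophore element C4: distance from averaged pharmacophore element to bound ligand; missing value means element absent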;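 on Ligand-pharmacophore element distance, pharmacophore element C5: distance from averaged pharmacophore element to bound ligand; missing value means element absent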
Design: van der Waals contact distance, MASP-2 HIS 483 atom CD2 / van der Waals contact distance, MASP-2 HIS 483 atom NE2 / van der Waals contact distance, SER 654 C to compound atom / van der Waals contact distance, SER 654 O to compound atom / van der Waals contact distance, TRP 655 C to compound atom / van der Waals contact distance, MASP-2 GLY 528 atom CA / van der Waals contact distance TRP 655 atom CZ3 / van der Waals contact distance TRP 655 atom N / van der Waals contact distance TRP 655 atom CE3 / van der Waals contact distance GLY 656 atom C / van der Waals contact distance GLY 656 atom CA / van der Waals contact distance GLY 656 atom O / van der Waals contact distance, MASP-2 TYR 607 atom CD1 / van der Waals contact distance, MASP-2 PRO 606 atom O / d(C3,CA1) / d(CA1,N1)2 / d(H4,O1) / d(H4,O2) / d(O1,O2) / d(CA1,O2) / d(CA6,O1) / d(CA6,O2) / d(CA1,C5) / d(O2,H3) / d(N2,C2) / d(CA5,N2) / d(N2,C4) / d(N2,C6) / d(N2,CA3) / d(N2,O3) / d(O4,H2): unit not given beside the values
Conditions: for H-bond distance to MASP-2 GLY 656 atom N: GLY 656 N; for H-bond distance to MASP-2 SER 628 atom O: SER 628 O; for H-bond distance to MASP-2 SER 654 atom O: SER 654 O; for H-bond distance to MASP-2 SER 657 atom O: SER 657 O; for van der Waals contact distance, MASP-2 HIS 483 atom CD2 / van der Waals contact distance, MASP-2 HIS 483 atom NE2: Table A2-1
In short: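 Contacts and H-bonds come from partially refined soaked-crystal structures of recombinant human CCP2-SP made in E. coli, solved by molecular replacement against 1Q3X fragments. Where several ligand poses appeared, only one was analysed; listed nonbonded contacts may include possible H-bond pairings.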

[1] = Table A5-1 pharmacophore: distance between elements, S2/S1 region
[2] = Table A5-2 pharmacophore distance, S3/S4 region
[3] = Table A7-1, between pharmacophore elements of the bound compound

Sequence of MASP-2 CCP2-SP (O00187 445-686): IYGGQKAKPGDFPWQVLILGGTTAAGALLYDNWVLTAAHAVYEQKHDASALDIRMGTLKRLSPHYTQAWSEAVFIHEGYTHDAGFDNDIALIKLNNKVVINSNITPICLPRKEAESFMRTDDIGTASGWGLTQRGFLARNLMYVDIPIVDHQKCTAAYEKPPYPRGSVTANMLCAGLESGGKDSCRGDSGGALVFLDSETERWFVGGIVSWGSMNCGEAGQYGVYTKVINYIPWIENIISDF
Sequence of MASP-2 CCP2-SP (O00187 364-432 partner): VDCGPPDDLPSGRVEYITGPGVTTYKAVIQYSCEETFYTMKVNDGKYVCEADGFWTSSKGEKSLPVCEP

In the case of `CC(=O)Nc1ccc(CCN[C@H](CCc2ccccc2)C(=O)N[C@@H](C)C(=O)NCc2ccc(C(=N)N)cc2)cc1` [compound 1345, (R)-2-((4-acetamidophenethyl)amino)-N—((S)-1-((4-carbamimidoylbenzyl)amino)-1-oxopropan-2-yl)-4-phenylbutanamide], the “H-bond distance to MASP-2 ARG 630 atom NH1 (second bond)” value (Table A1 (H-Bonds), ARG 630 NH1) is reported as 2.37, the “H-bond distance to MASP-2 GLN 665 atom OE1” value (Table A1 (H-Bonds), GLN 665 OE1) is reported as 2.63 and the “H-bond distance to MASP-2 GLY 656 atom N” value (Table A1 (H-Bonds)) is reported as 3.05. For the same compound, the “H-bond distance to MASP-2 GLY 656 atom O” value (Table A1 (H-Bonds), GLY 656 O) was 3.13, the “H-bond distance to MASP-2 SER 628 atom O” value (Table A1 (H-Bonds)) was 2.64 and the “H-bond distance to MASP-2 SER 654 atom O” value (Table A1 (H-Bonds)) was 3.02. The “H-bond distance to MASP-2 SER 657 atom O” value (Table A1 (H-Bonds)) was 3.01, the “van der Waals contact distance, MASP-2 HIS 483 atom CD2” value was 3.69 and the “van der Waals contact distance, MASP-2 HIS 483 atom NE2” value was 3.37. For the same compound, the “van der Waals contact distance, MASP-2 PHE 529 atom CZ” value (Table A2-3) was 3.88, the “van der Waals contact distance, MASP-2 amino acid atom to compound atom” value (Table A2-9, ARG 630, AA atoms CG, CZ) was 3.52 and the “van der Waals contact distance, SER 654 C to compound atom” value (Table A2-11) was 3.84. For the same compound, the “van der Waals contact distance, SER 654 O to compound atom” value (Table A2-12) was 3.75 and the “van der Waals contact distance GLY 656 atom C” value (Table A2-13, MASP-2 GLY 656 C) was 3.74.

`Cc1nc(N)ccc1CNC(=O)[C@H](C)NC(=O)[C@H]1C[C@@H](c2ccccc2)CCN1CCC(=O)O` [compound 1411, 3-((2R,4S)-2-(((S)-1-(((6-Amino-2-methylpyridin-3-yl)methyl)amino)-1-oxopropan-2-yl)carbamoyl)-4-phenylpiperidin-1-yl)propanoic acid Trifluoroacetate salt] was tested, and the “H-bond distance to MASP-2 ARG 630 atom NE” value (Table A1 (H-Bonds), ARG 630 NE) was 2.66, the “H-bond distance to MASP-2 ASP 627 atom OD2” value (Table A1 (H-Bonds), ASP 627 OD2) was 3.17 and the “H-bond distance to MASP-2 GLY 656 atom N” value (Table A1 (H-Bonds)) was 3.07. The “H-bond distance to MASP-2 SER 628 atom O” value (Table A1 (H-Bonds)) was 3.2, the “H-bond distance to MASP-2 SER 654 atom O” value (Table A1 (H-Bonds)) was 3.06 and the “H-bond distance to MASP-2 SER 657 atom O” value (Table A1 (H-Bonds)) was 2.61. The “van der Waals contact distance, MASP-2 amino acid atom to compound atom” value (Table A2) was 3.8, the “van der Waals contact distance, MASP-2 HIS 483 atom CD2” value was 3.51 and the “van der Waals contact distance, MASP-2 HIS 483 atom NE2” value was 3.46. For the same compound, the “van der Waals contact distance, MASP-2 GLY 528 atom CA” value (Table A2-2) was 3.85, the “van der Waals contact distance, MASP-2 PHE 529 atom CE1” value (Table A2-3) was 3.69 and the “van der Waals contact distance, VAL 653 CG1 to compound atom” value (Table A2-11) was 3.52. The “van der Waals contact distance TRP 655 atom CE3” value (Table A2-13, MASP-2 TRP 655 CE3, compound atom in line below) was 3.6, the “van der Waals contact distance TRP 655 atom CZ3” value (Table A2-13, MASP-2 TRP 655 CZ3) was 3.57 and the “Ligand-pharmacophore element distance, pharmacophore element C2” value (Table A4-1, element C2) was 0.42. The “Ligand-pharmacophore element distance, pharmacophore element C3” value (Table A4-1, element C3) was 0.32, the “Ligand-pharmacophore element distance, pharmacophore element C4” value (Table A4-1, element C4) was 0 and the “Ligand-pharmacophore element distance, pharmacophore element C5” value (Table A4-1, element C5) was 0. The “Ligand-pharmacophore element distance, pharmacophore element C6” value (Table A4-1, element C6) was 0, the “Ligand-pharmacophore element distance, pharmacophore element C7” value (Table A4-1, element C7) was 0 and the “Ligand-pharmacophore element distance, pharmacophore element CA1” value (Table A4-1, element CA1) was 0.71. The “Ligand-pharmacophore element distance, pharmacophore element CA2” value (Table A4-1, element CA2) was 0.52, the “Ligand-pharmacophore element distance, pharmacophore element CA3” value (Table A4-1, element CA3) was 0 and the “Ligand-pharmacophore element distance, pharmacophore element CA4” value (Table A4-1, element CA4) was 0. The “Ligand-pharmacophore element distance, pharmacophore element CA5” value (Table A4-1, element CA5) was 0, the “Ligand-pharmacophore element distance, pharmacophore element CA6” value (Table A4-1, element CA6) was 0 and the “d(C3,CA1)” value [1] was 2.87. The “d(CA1,N1)2” value [1] was 1.34, the “d(CA1,O1)” value [1] was 4.37 and the “d(CA1,O2)” value [1] was 4.05. The “d(H4,O1)” value [1] was 4.34, the “d(H4,O2)” value [1] was 3.90 and the “d(O1,O2)” value [1] was 3.50. The “d(N2,C2)” value [2] was 1.46, the “d(N2,CA2)” value [2] was 5.72 and the “d(O2,H3)” value [2] was 4.13. The “d(O2,N2)” value [2] was 2.68, the “a(C3, CA1, O1)” value (Table A6-1 pharmacophore angle) was 149.02 and the “a(CA1, O1, O2)” value (Table A6-1 pharmacophore angle) was 109.85. The “a(O1, O2, H4)” value (Table A6-1 pharmacophore angle) was 130.04, the “a(N1, CA1, O1) b)” value (Table A6-1 pharmacophore angle, Methyl-amino-pyridine compounds) was 173.43 and the “a(O1, O2, H3)” value (Table A6-2 pharmacophore angle) was 142.75. The “a(O1, O2, N2)” value (Table A6-2 pharmacophore angle) was 140.47, the “a(O2, N2, C2)” value (Table A6-2 pharmacophore angle) was 130.32 and the “a(O2, N2, CA2)” value (Table A6-2 pharmacophore angle) was 155.94. For the same compound, the “Pharmacophore torsion angle a(C3, CA1, O1, H4)” value [3] was 24.51, the “Pharmacophore torsion angle a(H4, O1, O2, H3)” value [3] was 55.16 and the “Pharmacophore torsion angle a(H4, O1, O2, N2)” value [3] was 137.13. For the same compound, the “Pharmacophore torsion angle a(N1, CA1, O1, H4)” value [3] was −2.21, the “Pharmacophore torsion angle a(O1, H4, O2, CA1)” value [3] was −82.11 and the “Pharmacophore torsion angle a(O1, O2, N2, C2)” value [3] was 117.46. The “Pharmacophore torsion angle a(O1, O2, N2, CA2)” value (Table A7-2, between pharmacophore elements of the bound compound) was 127.52.
